Test results from paper PMC9133015 (Nature Communications, 2022).
Several values for one entry are separate records, joined by “and”; a condition that tells them apart may be missing. Identical values can stand only once.

What was measured:
Assay in all cases: Kinase inhibitor specificity profiling (Reaction Biology Corporation)
Format in all cases: biochemical
Parameters in all cases: % Enzyme Activity (relative to DMSO controls): concentration or dose not given beside the values
[1] = target: T1, panel of 370 protein kinases (Homo sapiens, UniProt P00533); conditions: kinase EGFR
T1 construct: purchased Reaction Biology Corporation (assay service)

[2] = target: T2, panel of 370 protein kinases (Homo sapiens, UniProt Q9UM73); conditions: 2 h, kinase ALK; read-out: % Enzyme Activity (relative to DMSO controls)
T2 construct: purchased Reaction Biology Corporation (assay service)

[3] = target: T3, panel of 370 protein kinases (Homo sapiens, UniProt Q7KZI7); conditions: 2 h, kinase MARK2/PAR-1Ba; read-out: % Enzyme Activity (relative to DMSO controls)
T3 construct: purchased Reaction Biology Corporation (assay service)

[4] = target: T4, panel of 370 protein kinases (Homo sapiens, UniProt Q9Y572); conditions: 2 h, kinase RIPK3; read-out: % Enzyme Activity (relative to DMSO controls)
T4 construct: purchased Reaction Biology Corporation (assay service)

[5] = target: T5, panel of 370 protein kinases (Homo sapiens, UniProt P43250); conditions: 2 h, kinase GRK6; read-out: % Enzyme Activity (relative to DMSO controls)
T5 construct: purchased Reaction Biology Corporation (assay service)

[6] = target: T6, panel of 370 protein kinases (Homo sapiens, UniProt Q9BZL6); conditions: 2 h, kinase PKD2/PRKD2; read-out: % Enzyme Activity (relative to DMSO controls)
T6 construct: purchased Reaction Biology Corporation (assay service)

[7] = target: T7, panel of 370 protein kinases (Homo sapiens, UniProt O75116); conditions: 2 h, kinase ROCK2; read-out: % Enzyme Activity (relative to DMSO controls)
T7 construct: purchased Reaction Biology Corporation (assay service)

[8] = target: T8, panel of 370 protein kinases (Homo sapiens, UniProt O75914); conditions: 2 h, kinase PAK3; read-out: % Enzyme Activity (relative to DMSO controls)
T8 construct: purchased Reaction Biology Corporation (assay service)

[9] = target: T9, panel of 370 protein kinases (Homo sapiens, UniProt Q8TDX7); conditions: 2 h, kinase NEK7; read-out: % Enzyme Activity (relative to DMSO controls)
T9 construct: purchased Reaction Biology Corporation (assay service)

[10] = target: T10, panel of 370 protein kinases (Homo sapiens, UniProt Q8IVH8); conditions: kinase GLK/MAP4K3
T10 construct: purchased Reaction Biology Corporation (assay service)

[11] = target: T11, panel of 370 protein kinases (Homo sapiens, UniProt Q05513); conditions: 2 h, kinase PKCzeta; read-out: % Enzyme Activity (relative to DMSO controls)
T11 construct: purchased Reaction Biology Corporation (assay service)

[12] = target: T12, panel of 370 protein kinases (Homo sapiens, UniProt Q9HBH9); conditions: 2 h, kinase MNK2; read-out: % Enzyme Activity (relative to DMSO controls)
T12 construct: purchased Reaction Biology Corporation (assay service)

[13] = target: T13, panel of 370 protein kinases (Homo sapiens, UniProt Q6VAB6); conditions: 2 h, kinase KSR2; read-out: % Enzyme Activity (relative to DMSO controls)
T13 construct: purchased Reaction Biology Corporation (assay service)

[14] = target: T14, panel of 370 protein kinases (Homo sapiens, UniProt P24941)
T14 construct: purchased Reaction Biology Corporation (assay service)

[15] = target: T15, panel of 370 protein kinases (Homo sapiens, UniProt Q16644); conditions: 2 h, kinase MAPKAPK3; read-out: % Enzyme Activity (relative to DMSO controls)
T15 construct: purchased Reaction Biology Corporation (assay service)

[16] = target: T16, panel of 370 protein kinases (Homo sapiens, UniProt P21802); conditions: 2 h, kinase FGFR2; read-out: % Enzyme Activity (relative to DMSO controls)
T16 construct: purchased Reaction Biology Corporation (assay service)

[17] = target: T17, panel of 370 protein kinases (Homo sapiens, UniProt Q00537); conditions: 2 h, kinase CDK17/cyclin Y (PCTK2); read-out: % Enzyme Activity (relative to DMSO controls)
T17 construct: purchased Reaction Biology Corporation (assay service)

[18] = target: T18, panel of 370 protein kinases (Homo sapiens, UniProt O94921); conditions: kinase CDK14/cyclin Y (PFTK1)
T18 construct: purchased Reaction Biology Corporation (assay service)

[19] = target: T19, panel of 370 protein kinases (Homo sapiens, UniProt Q6P2M8); conditions: kinase CAMK1b
T19 construct: purchased Reaction Biology Corporation (assay service)

[20] = target: T20, panel of 370 protein kinases (Homo sapiens, UniProt Q96PN8); conditions: 2 h, kinase TSSK3/STK22C; read-out: % Enzyme Activity (relative to DMSO controls)
T20 construct: purchased Reaction Biology Corporation (assay service)

[21] = target: T21, panel of 370 protein kinases (Homo sapiens, UniProt P04626); conditions: 2 h, kinase ERBB2/HER2; read-out: % Enzyme Activity (relative to DMSO controls)
T21 construct: purchased Reaction Biology Corporation (assay service)

T18 sequence (O94921 whole entry): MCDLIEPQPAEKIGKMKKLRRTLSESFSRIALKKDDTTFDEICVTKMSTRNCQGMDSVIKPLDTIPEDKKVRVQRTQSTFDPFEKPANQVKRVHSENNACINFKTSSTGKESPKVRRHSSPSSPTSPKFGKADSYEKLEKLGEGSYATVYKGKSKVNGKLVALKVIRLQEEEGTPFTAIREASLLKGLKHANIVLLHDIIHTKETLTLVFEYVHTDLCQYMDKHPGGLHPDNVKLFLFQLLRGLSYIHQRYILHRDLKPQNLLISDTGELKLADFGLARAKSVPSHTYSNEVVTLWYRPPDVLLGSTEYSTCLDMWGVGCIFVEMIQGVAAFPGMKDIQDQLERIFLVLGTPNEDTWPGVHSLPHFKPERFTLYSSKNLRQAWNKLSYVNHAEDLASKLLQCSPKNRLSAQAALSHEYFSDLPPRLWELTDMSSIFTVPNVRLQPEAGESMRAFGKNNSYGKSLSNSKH
T19 sequence (Q6P2M8 whole entry): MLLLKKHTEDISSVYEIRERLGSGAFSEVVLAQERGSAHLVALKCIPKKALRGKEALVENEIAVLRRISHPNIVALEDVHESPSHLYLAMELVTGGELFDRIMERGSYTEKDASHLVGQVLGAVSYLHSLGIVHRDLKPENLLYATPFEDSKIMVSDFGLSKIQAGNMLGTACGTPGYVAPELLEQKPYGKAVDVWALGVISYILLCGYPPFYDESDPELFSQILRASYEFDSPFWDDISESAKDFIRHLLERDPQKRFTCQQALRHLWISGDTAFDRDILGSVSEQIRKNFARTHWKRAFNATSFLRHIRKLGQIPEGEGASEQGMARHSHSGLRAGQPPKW
T1 sequence (P00533 25-1210): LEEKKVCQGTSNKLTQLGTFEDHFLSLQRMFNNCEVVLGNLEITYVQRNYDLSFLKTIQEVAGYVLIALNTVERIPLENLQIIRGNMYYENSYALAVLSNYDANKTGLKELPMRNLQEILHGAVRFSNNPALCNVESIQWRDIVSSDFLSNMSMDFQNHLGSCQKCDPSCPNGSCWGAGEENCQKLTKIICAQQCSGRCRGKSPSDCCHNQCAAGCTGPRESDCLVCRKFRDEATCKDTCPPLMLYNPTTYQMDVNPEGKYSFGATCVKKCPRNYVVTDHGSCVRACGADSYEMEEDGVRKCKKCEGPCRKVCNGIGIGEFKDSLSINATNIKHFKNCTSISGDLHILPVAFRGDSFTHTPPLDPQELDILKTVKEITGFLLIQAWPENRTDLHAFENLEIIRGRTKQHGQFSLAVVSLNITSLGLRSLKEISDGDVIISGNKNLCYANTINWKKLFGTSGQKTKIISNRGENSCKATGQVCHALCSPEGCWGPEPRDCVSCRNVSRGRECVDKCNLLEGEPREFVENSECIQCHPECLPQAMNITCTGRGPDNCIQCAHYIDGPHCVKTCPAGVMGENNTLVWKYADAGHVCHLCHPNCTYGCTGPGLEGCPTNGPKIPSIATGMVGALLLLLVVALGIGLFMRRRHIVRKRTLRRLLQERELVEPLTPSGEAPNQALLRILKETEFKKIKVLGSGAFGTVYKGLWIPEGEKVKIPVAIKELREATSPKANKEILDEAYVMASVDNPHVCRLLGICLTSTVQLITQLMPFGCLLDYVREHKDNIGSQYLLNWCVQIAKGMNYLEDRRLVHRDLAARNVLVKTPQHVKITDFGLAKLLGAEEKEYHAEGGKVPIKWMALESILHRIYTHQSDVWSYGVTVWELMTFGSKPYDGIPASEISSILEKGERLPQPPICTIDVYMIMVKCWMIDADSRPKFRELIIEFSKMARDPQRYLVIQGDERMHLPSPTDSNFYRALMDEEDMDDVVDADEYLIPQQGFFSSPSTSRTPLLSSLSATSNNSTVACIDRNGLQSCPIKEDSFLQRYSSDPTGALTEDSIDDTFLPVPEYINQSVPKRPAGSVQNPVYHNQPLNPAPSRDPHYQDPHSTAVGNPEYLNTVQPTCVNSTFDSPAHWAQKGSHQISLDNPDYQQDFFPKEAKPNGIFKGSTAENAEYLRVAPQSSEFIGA
T10 sequence (Q8IVH8 whole entry): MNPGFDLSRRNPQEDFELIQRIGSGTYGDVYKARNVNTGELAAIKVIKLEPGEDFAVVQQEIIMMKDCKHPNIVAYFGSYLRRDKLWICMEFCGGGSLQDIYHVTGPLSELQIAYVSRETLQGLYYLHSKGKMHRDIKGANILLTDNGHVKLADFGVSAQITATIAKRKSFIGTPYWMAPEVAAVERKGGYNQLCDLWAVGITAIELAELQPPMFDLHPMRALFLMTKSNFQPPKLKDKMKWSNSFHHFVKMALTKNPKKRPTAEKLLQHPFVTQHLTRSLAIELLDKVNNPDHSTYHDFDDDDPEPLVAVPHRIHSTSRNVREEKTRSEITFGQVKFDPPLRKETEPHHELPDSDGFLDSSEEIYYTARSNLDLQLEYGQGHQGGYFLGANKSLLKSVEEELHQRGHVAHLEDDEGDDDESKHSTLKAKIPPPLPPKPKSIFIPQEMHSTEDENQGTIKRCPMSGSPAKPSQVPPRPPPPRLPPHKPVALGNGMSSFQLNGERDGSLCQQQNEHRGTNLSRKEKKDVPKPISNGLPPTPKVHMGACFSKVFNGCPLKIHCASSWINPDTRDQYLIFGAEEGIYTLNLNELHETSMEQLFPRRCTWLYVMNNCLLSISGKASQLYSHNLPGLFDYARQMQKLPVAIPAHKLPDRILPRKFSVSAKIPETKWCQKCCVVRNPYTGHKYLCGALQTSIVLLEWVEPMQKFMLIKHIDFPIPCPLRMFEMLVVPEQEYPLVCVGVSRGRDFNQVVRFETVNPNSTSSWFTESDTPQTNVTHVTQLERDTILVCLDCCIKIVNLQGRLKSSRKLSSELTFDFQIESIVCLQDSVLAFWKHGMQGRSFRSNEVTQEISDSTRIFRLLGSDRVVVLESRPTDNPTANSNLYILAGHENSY
T8 sequence (O75914 whole entry): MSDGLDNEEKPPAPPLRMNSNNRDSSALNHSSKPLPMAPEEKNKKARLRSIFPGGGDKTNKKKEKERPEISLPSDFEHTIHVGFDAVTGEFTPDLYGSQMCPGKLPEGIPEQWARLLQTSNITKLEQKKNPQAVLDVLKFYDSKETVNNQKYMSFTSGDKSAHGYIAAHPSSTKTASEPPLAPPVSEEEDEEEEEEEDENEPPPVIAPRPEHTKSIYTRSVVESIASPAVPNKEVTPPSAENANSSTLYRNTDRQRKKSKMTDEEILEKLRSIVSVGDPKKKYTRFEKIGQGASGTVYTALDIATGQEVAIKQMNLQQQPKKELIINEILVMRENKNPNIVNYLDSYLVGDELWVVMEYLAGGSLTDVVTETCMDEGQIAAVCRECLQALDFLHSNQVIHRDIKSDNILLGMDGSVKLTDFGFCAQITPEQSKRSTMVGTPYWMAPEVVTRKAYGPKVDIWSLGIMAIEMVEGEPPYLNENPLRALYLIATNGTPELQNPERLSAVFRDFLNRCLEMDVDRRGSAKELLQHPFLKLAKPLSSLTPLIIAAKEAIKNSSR
T4 sequence (Q9Y572 whole entry): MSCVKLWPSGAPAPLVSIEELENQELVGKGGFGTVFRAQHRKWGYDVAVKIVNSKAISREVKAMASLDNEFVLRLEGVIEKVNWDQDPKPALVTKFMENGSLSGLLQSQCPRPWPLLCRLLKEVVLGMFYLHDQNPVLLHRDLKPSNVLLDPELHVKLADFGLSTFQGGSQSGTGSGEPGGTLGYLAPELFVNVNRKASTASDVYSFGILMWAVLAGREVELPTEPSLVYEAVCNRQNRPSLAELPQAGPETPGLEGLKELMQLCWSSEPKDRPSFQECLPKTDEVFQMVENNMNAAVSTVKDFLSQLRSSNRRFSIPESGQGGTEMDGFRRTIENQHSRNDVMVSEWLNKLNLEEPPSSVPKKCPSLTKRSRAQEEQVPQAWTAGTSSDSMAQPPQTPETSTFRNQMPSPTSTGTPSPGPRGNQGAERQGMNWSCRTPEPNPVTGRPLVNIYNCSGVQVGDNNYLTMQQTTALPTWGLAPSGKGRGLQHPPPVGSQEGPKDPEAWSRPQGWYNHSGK
T12 sequence (Q9HBH9 whole entry): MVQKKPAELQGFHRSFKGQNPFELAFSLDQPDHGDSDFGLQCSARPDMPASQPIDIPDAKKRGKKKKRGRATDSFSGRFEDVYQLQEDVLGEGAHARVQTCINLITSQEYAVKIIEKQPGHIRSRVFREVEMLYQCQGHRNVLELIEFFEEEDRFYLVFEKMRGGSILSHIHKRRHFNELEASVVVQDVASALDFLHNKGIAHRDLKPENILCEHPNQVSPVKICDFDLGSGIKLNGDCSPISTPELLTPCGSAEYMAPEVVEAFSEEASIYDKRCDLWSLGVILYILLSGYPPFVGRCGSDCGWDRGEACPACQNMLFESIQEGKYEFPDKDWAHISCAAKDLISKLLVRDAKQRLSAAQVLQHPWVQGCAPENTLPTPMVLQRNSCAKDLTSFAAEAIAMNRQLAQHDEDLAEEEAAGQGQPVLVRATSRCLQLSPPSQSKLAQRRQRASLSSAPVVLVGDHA
T9 sequence (Q8TDX7 whole entry): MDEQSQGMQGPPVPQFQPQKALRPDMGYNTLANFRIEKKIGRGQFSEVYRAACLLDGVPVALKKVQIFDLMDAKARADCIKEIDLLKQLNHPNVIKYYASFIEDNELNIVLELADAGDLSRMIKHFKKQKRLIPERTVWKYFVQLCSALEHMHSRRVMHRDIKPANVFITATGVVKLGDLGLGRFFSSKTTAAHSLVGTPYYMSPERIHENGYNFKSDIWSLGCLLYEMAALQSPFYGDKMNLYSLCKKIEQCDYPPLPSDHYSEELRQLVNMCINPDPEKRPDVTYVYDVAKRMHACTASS
T20 sequence (Q96PN8 whole entry): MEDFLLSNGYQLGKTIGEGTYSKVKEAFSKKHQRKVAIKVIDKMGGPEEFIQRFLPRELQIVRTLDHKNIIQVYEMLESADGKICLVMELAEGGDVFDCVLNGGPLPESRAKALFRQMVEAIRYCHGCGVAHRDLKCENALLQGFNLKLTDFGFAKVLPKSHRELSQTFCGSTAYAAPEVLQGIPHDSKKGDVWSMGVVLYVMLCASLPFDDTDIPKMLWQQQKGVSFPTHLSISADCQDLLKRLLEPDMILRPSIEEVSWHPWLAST

`CCN1CCN(C(=O)c2ccc(Nc3ncc(F)c(-c4ccc5nc(N(C)C)sc5c4)n3)nc2)CC1` [YK-2-69] was tested, and the “% Enzyme Activity (relative to DMSO controls)” value [1] was 109.51% and 108.13%, the remaining activity at 1 µM [2] was 98.8% and the remaining activity at 1 µM [3] was 83.2%. For the same compound, the remaining activity at 1 µM [4] was 102%, the remaining activity at 1 µM [5] was 114% and the remaining activity at 1 µM [6] was 80.8%. The remaining activity at 1 µM [7] was 93.2%, the remaining activity at 1 µM [8] was 160% and the remaining activity at 1 µM [9] was 96.7%. The “% Enzyme Activity (relative to DMSO controls)” value [10] was 96.94% and 93.55%, the remaining activity at 1 µM [11] was 83.8% and the remaining activity at 1 µM [12] was 89.2%. The remaining activity at 1 µM [13] was 93%, the “% Enzyme Activity (relative to DMSO controls)” value ([14]; kinase CDK2/CYCLIN A) was 90.79% and 87.87% and the “% Enzyme Activity (relative to DMSO controls)” value ([14]; kinase CDK2/CYCLIN E) was 95.30% and 94.87%. For the same compound, the “% Enzyme Activity (relative to DMSO controls)” value ([14]; kinase CDK2/Cyclin A1) was 80.25% and 75.26%, the “% Enzyme Activity (relative to DMSO controls)” value ([14]; kinase CDK2/cyclin E2) was 104.31% and 100.73% and the “% Enzyme Activity (relative to DMSO controls)” value ([14]; kinase CDK2/cyclin O) was 78.97% and 75.52%. The remaining activity at 1 µM [15] was 116%, the remaining activity at 1 µM [16] was 86.2% and the remaining activity at 1 µM [17] was 99.2%. The “% Enzyme Activity (relative to DMSO controls)” value [18] was 116.35% and 115.11%, the “% Enzyme Activity (relative to DMSO controls)” value [19] was 94.21% and 93.36% and the remaining activity at 1 µM [20] was 94.6%. For the same compound, the remaining activity at 1 µM [21] was 100%.
